In ChEMBL document CHEMBL4118091, “N-Acylbenzenesulfonamide Dihydro-1,3,4-oxadiazole Hybrids: Seeking Selectivity toward Carbonic Anhydrase Isoforms” (ACS Med Chem Lett, 2017):

Key:
[1] = biological target: Carbonic anhydrase 9 (Homo sapiens, UniProt Q16790); experiment: Inhibition of recombinant human carbonic anhydrase 9 assessed as reduction in CO2 hydration pretreated for 15 mins followed by CO2 addition measured for 10 to 100 sec by Line-Weaver Burk plot analysis
[2] = biological target: Carbonic anhydrase 1 (Homo sapiens, UniProt P00915); experiment: Inhibition of recombinant human carbonic anhydrase 1 assessed as reduction in CO2 hydration pretreated for 15 mins followed by CO2 addition measured for 10 to 100 sec by Line-Weaver Burk plot analysis
Chain of Carbonic anhydrase 1 (P00915 whole entry): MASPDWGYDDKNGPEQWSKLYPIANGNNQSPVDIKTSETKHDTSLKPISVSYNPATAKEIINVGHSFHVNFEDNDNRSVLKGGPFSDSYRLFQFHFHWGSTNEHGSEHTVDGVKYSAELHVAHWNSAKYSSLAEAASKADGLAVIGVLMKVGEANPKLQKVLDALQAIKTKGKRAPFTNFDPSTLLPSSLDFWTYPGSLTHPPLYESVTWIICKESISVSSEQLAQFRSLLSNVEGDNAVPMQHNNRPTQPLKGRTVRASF

Molecule `CC(=O)NS(=O)(=O)c1ccc(C2=NN(C(C)=O)C(c3ccc(C)cc3)O2)cc1` (centres undefined) has a Ki [1] of 502 nM.
Work on `CC(=O)NS(=O)(=O)c1ccc(C2=NN(C(C)=O)C(c3ccccc3[N+](=O)[O-])O2)cc1` (centres undefined) yielded a Ki [2] of over 10000 nM and a Ki [1] of 159 nM.
For `CC(=O)NS(=O)(=O)c1ccc(C2=NN(C(C)=O)C(c3ccc(F)cc3F)O2)cc1` (centres undefined), the Ki [1] was 373 nM.
Work on `CC(=O)NS(=O)(=O)c1ccc(C2=NN(C(C)=O)C(c3ccc(Cl)cc3Cl)O2)cc1` (single isomer, unassigned; (+)) yielded a Ki [1] of 26.9 nM.
Work on `CC(=O)NS(=O)(=O)c1ccc(C2=NN(C(C)=O)C(c3cccc([N+](=O)[O-])c3)O2)cc1` (centres undefined) yielded a Ki [2] of over 10000 nM and a Ki [1] of 44.3 nM.
`COc1ccccc1C1OC(c2ccc(S(=O)(=O)NC(C)=O)cc2)=NN1C(C)=O` (centres undefined) was tested, and the Ki [1] was 378 nM.
Work on `COc1cccc(C2OC(c3ccc(S(=O)(=O)NC(C)=O)cc3)=NN2C(C)=O)c1` (centres undefined) yielded a Ki [1] of 430 nM.
`CC(=O)NS(=O)(=O)c1ccc(C2=NN(C(C)=O)C(c3ccccc3C)O2)cc1` (centres undefined) gave a Ki [1] of 489 nM.
In the case of `CC(=O)NS(=O)(=O)c1ccc(C2=NN(C(C)=O)C(c3ccc(Cl)cc3Cl)O2)cc1` (single isomer, unassigned; (-)), the Ki [1] is reported as 24.2 nM.
`COc1ccc(C2OC(c3ccc(S(=O)(=O)NC(C)=O)cc3)=NN2C(C)=O)cc1` (centres undefined) gave a Ki [2] of over 10000 nM and a Ki [1] of 143 nM.
`CC(=O)NS(=O)(=O)c1ccc(C2=NN(C(C)=O)C(c3ccc(F)cc3)O2)cc1` (centres undefined) gave a Ki [1] of 43.6 nM.
`CC(=O)NS(=O)(=O)c1ccc(C2=NN(C(C)=O)C(c3ccc([N+](=O)[O-])cc3)O2)cc1` (centres undefined) gave a Ki [1] of 33.1 nM.
Molecule `CC(=O)NS(=O)(=O)c1ccc(C2=NN(C(C)=O)C(c3ccc(Cl)cc3)O2)cc1` (centres undefined) has a Ki [1] of 502 nM.
With `CC(=O)NS(=O)(=O)c1ccc(C2=NN(C(C)=O)C(c3ccc(Cl)cc3Cl)O2)cc1` (racemic) the Ki [1] was 25 nM.
Work on `CC(=O)NS(=O)(=O)c1ccc(C2=NN(C(C)=O)C(c3ccc(C(F)(F)F)cc3)O2)cc1` (centres undefined) yielded a Ki [2] of over 10000 nM and a Ki [1] of 468 nM.
